Measured values reported in patent publication US5972951A, “Tetracyclic spiro compounds, process for their preparation and their use as 5HT1D receptor antagonists” (SmithKline Beecham plc, priority 1994, dated 1999).

molecular target: T1, 5-HT 1D beta receptors (Homo sapiens, UniProt P28222); assay: 5-HT 1D beta binding ([3H]-5-HT displacement, homogenised CHO cells); conditions: not given
T1 construct: expressed in transfected cells; host or cells: CHO cells
Protocol: 5-HT 1D ALPHA AND 5-HT 1D BETA BINDING.
CHO cells expressing 5-HT 1D beta receptors (4×10^7 cells/ml) are homogenised in Tris buffer and stored in 1.5 ml aliquots.
0.4 ml of a cell suspension was incubated with [^3 H]-5-HT (4 nM) in Tris Mg HCl buffer (pH 7.7) and test drug, at 37° C. for 45 minutes. Each test drug was tested at 10 concentrations (0.01 mM to 0.3 nM final concentration), with non-specific binding defined using 0.01 mM 5-HT. The total assay volume was 0.5 ml. Incubation was stopped by rapid filtration using a Packard Filtermate (filters pre-soaked in 0.3% polyethylenimine) and radioactivity measured by Topcount scintillation counting. The pKi values were calculated from the IC50 generally by an iterative leas squares curve fitting programme.

T1 sequence (P28222 whole entry): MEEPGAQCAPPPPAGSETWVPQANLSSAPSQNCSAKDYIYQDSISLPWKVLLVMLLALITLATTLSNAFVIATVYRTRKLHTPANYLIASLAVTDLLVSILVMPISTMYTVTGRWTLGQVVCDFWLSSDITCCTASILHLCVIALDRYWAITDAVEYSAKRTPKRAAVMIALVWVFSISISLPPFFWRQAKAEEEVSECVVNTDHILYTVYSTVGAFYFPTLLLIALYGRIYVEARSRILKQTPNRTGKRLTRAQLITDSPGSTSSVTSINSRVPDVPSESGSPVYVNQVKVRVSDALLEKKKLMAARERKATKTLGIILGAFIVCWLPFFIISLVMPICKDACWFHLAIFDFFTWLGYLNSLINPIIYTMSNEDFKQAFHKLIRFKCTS

Compound	Ki
CCN1CCC2(CC1)COc1cc3c(cc12)N(C(=O)c1ccc(-c2ccc(-c4nnc(C)o4)cc2C)cc1)CC3 [Example 26, 1'-Ethyl-5-[2'-methyl-4'-(5-methyl-1,3,4-oxadiazol-2-yl)biphenyl-4-carbonyl]-2,3,6,7-tetrahydrospiro[furo[2,3-f]indole-3,4'-piperidine]]	< 10 nM

same assay, conditions: CHO cells expressing 5-HT 1D beta receptors; [3H]-5-HT (4 nM); 37° C. for 45 minutes; pKi calculated from the IC50; read-out: pKi values at 5-HT 1D beta receptors (converted)

Compound	Ki
Cc1cc(-c2noc(CO)n2)ccc1-c1ccc(C(=O)N2CCc3cc4c(cc32)C2(CCN(C)CC2)CO4)cc1 [Example 55, 5-[4'-(5-Hydroxymethyl-1,2,4-oxadiazol-3-yl)-2'-methylbiphenyl-4-carbonyl]-1'-methyl-2,3,6,7-tetrahydrospiro[furo[2,3-f]indole-3,4'-piperidine]]	< 10 nM
Cc1cc(-c2noc(N(C)C)n2)ccc1-c1ccc(C(=O)N2CCc3cc4c(cc32)C2(CCN(C)CC2)CO4)cc1 [Example 6, 5-(4'-(5-Dimethylamino-1,2,4-oxadiazol-3-yl)-2'-methylbiphenyl-4-carbonyl)-1'-methyl-2,3,6,7-tetrahydrospiro[furo[2,3-f]indole-3,4'-piperidine]]	< 10 nM
Cc1nnc(-c2ccc(-c3ccc(C(=O)N4CCc5cc6c(cc54)C4(CCN(C)CC4)CO6)cc3)c(C)c2)o1 [Example 5, 1'-Methyl-5-(2'-methyl-4'-(5-methyl-1,3,4-oxadiazol-2-yl)biphenyl-4-carbonyl)-2,3,6,7-tetrahydrospiro[furo[2,3-f]indole-3,4'-piperidine]]	< 10 nM
Cc1cc(-c2cncn2C)ccc1-c1ccc(C(=O)N2CCc3cc4c(cc32)C2(CCN(C)CC2)CO4)cc1 [Example 54, 1'-Methyl-5-[2'-methyl-4'-(1-methylimidazol-5-yl)biphenyl-4-carbonyl]-2,3,6,7-tetrahydrospiro[furo[2,3-f]indole-3,4'-piperidine]]	< 10 nM
Cc1nc(-c2ccc(-c3ccc(C(=O)n4ccc5cc6c(cc54)C4(CCN(C)CC4)CO6)cc3)c(C)c2)no1 [Example 8, 2,3-Dihydro-1'-methyl-5-(2'-methyl-4'-(5-methyl-1,2,4-oxadiazol-3-yl)biphenyl-4-carbonyl)spiro[furo[2,3-f]indole-3,4'-piperidine)]	< 10 nM
Cc1cc(-c2cnccn2)ccc1-c1ccc(C(=O)N2CCc3cc4c(cc32)C2(CCN(C)CC2)CO4)cc1 [Example 51, 1'-Methyl-5-(2'-methyl-4'-pyrazinylbiphenyl-4-carbonyl)-2,3,6,7-tetrahydrospiro[furo[2,3-f]indole-3,4'-piperidine]]	< 10 nM
CCN1CCC2(CC1)COc1cc3c(cc12)N(C(=O)c1ccc(-c2ccc(-c4noc(C)n4)cc2C)cc1)CC3 [Example 4, 1'-Ethyl-5-(2'-methyl-4'-(5-methyl-1,2,4-oxadiazol-3-yl)biphenyl-4-carbonyl)-2,3,6,7-tetrahydrospiro[furo[2,3-f]indole-3,4'-piperidine]]	< 10 nM
Cc1nnc(-c2ccc(-c3ccc(C(=O)n4ccc5cc6c(cc54)C4(CCN(C)CC4)CO6)cc3)c(C)c2)o1 [Example 18, 2,3-Dihydro-1'-methyl-5-(2'-methyl-4'-(5-methyl-1,3,4-oxadiazol-2-yl)biphenyl-4-carbonyl)spiro[furo[2,3-f]indole-3,4'-piperidine]]	< 10 nM
Cc1cc(-c2nccnn2)ccc1-c1ccc(C(=O)N2CCc3cc4c(cc32)C2(CCN(C)CC2)CO4)cc1 [Example 57, 1'-Methyl-5-[2'-methyl-4'-(1,2,4-triazin-3-yl)biphenyl-4-carbonyl]-2,3,6,7-tetrahydrospiro[furo[2,3-f]indole-3,4'-piperidine]]	< 10 nM
Cc1nnc(-c2ccc(-c3ccc(C(=O)N4CCc5cc6c(cc54)C4(CCO6)CCN(C)CC4)cc3)c(C)c2)o1 [Example 40, 1'-Methyl-6-[2°-methyl-4'-(5-methyl-1,3,4-oxadiazol-2-yl)biphenyl-4-carbonyl]-2,3,7,8-tetrahydrospiro[4H-pyrano[2,3-f]indole-4,4'-piperidine]]	< 10 nM
COC(=O)c1ccc(C)c(-c2ccc(C(=O)N3CCc4cc5c(cc43)C3(CCN(C)CC3)CO5)cc2)c1 [Example 23, 5-(5'-Methoxycarbonyl-2'-methylbiphenyl-4-carbonyl)-1'-methyl-2,3,6,7-tetrahydrospiro[furo[2,3-f]indole-3,4'-piperidine]]	< 10 nM
CCOC(=O)Nc1ccc(-c2ccc(C(=O)N3CCc4cc5c(cc43)C3(CCN(CC)CC3)CO5)cc2)c(C)c1 [Example 66, 5-[4'-(Ethoxycarbonylamino)-2'-methylbiphenyl-4-carbonyl]-1'-ethyl-2,3,6,7-tetrahydrospiro[furo[2,3-f]indole-3,4'-piperidine]]	< 10 nM
Cc1cc(-c2ccc(-c3ccc(C(=O)N4CCc5cc6c(cc54)C4(CCN(C)CC4)CO6)cc3)c(C)c2)no1 [Example 45, 1'-Methyl-5-(2'-methyl-4'-(5-methylisoxazol-3-yl)biphenyl-4-carbonyl)-2,3,6,7-tetrahydrospiro[furo[2,3-f]indole-3,4'-piperidine]]	< 10 nM
